Earlier results, collected in PMC3665737 (Biochimica et biophysica acta, 2013).
Where a SMILES comes first, the peptide text is derived from it. [ ]: non-standard residue; d: D form. Nle = CCCC[C@H](N)C(=O)O

What was measured:
PKA = details: peptides 1 - 3, with 14-3-3 domain; ref [14]
PKA (C subunit) = details: ALLN 500 μM, 30 min, 37 °C, ref [15]; for calpain dependence of induced PKA activity (effect of ALLN): oligomycin 5 μM, rotenone 10 μM, CCCP 5 μM, sodium azide 2 mM
mitochondrial calpain = details: bovine heart mitochondria; substrate N-succinyl-Leu-Tyr-7-amido-4-methylcoumarin; ref [15]
[1] = tested on: regulatory subunits (RI and RII) of PKA; details: bovine heart mitochondria exposed to digitonin; ref [15]
R subunit = details: isolated R subunit; 10 μM CaCl2, 37 °C, 20 min; ref [15]
R2C2 holoenzyme = details: 100 μM CaCl2, 0.5, 1.5, and 2.0 h, western blot, ref [15]
C subunit = details: isolated C subunit; Ca^2+ ≥ 100 μM, 37 °C, 20 min; ref [15]

## CCCCc1ccc(Nc2ccc(Nc3ccc(CCCC)cc3S(=O)(=O)[O-])c3c2C(=O)c2ccccc2C3=O)c(S(=O)(=O)[O-])c1.[Na+].[Na+] [Acid green 27]
PKA
  PKA-induced fluorescence increase with quencher: dramatic PKA-induced fluorescence increase

## CC[C@H]1/C=C/C=C/C[C@@H](C)[C@H](O)[C@@](C)(O)C(=O)[C@@H](C)[C@H](O)[C@@H](C)C(=O)[C@@H](C)[C@H](O)[C@@H](C)/C=C/C(=O)O[C@@H]2[C@H](C)[C@H](CC1)O[C@]1(CC[C@H](C)[C@H](C[C@@H](C)O)O1)[C@H]2C [oligomycin]
PKA (C subunit)
  calpain dependence of induced PKA activity (effect of ALLN): calpain independent

## CCCC[C@@H](C=O)NC(=O)[C@H](CC(C)C)NC(=O)[C@H](CC(C)C)NC(C)=O [ALLN, N-acetyl-Leu-Leu-Nle-al] (Ac-Leu-Leu-[Nle]-aldehyde)
PKA (C subunit); western blot
  attenuation of PKA activity induced by rotenone, azide and CCCP: attenuated

## N#CC(C#N)=NNc1cccc(Cl)c1 [CCCP, chlorophenylhydrazone]
PKA (C subunit)
  calpain dependence of induced PKA activity (effect of ALLN): attenuated by ALLN

## C[C@@H]1CC[C@@]2(OC1)O[C@H]1[C@@H](O)[C@H]3[C@@H]4CC[C@H]5C[C@@H](O[C@@H]6O[C@H](CO)[C@H](O[C@@H]7O[C@H](CO)[C@@H](O)[C@H](O[C@@H]8OC[C@@H](O)[C@H](O)[C@H]8O)[C@H]7O[C@@H]7O[C@H](CO)[C@H](O)[C@H](O[C@@H]8O[C@H](CO)[C@@H](O)[C@H](O)[C@H]8O)[C@H]7O)[C@H](O)[C@H]6O)[C@H](O)C[C@]5(C)[C@H]4CC[C@]3(C)[C@H]1[C@@H]2C [digitonin]
Mitochondrial calpain
  activation of mitochondrial calpain: direct activation of mitochondrial calpain
[1]
  C subunit proteolysis: the catalytic subunit (C) remained intact

## [N-]=[N+]=[N-].[Na+] [azide, sodium azide]
PKA (C subunit)
  calpain dependence of induced PKA activity (effect of ALLN): attenuated by ALLN

## C=C(C)[C@H]1Cc2c(ccc3c2O[C@@H]2COc4cc(OC)c(OC)cc4[C@@H]2C3=O)O1 [rotenone]
PKA (C subunit)
  calpain dependence of induced PKA activity (effect of ALLN): attenuated by ALLN

B1: calpain I: Ca^2+-activated protease (protein, UniProt P07384 2-714; P04632 1-268, looked up)
Calpain-1 catalytic subunit: SEEIITPVYCTGVSAQVQKQRARELGLGRHENAIKYLGQDYEQLRVRCLQSGTLFRDEAFPPVPQSLGYKDLGPNSSKTYGIKWKRPTELLSNPQFIVDGATRTDICQGALGDCWLLAAIASLTLNDTLLHRVVPHGQSFQNGYAGIFHFQLWQFGEWVDVVVDDLLPIKDGKLVFVHSAEGNEFWSALLEKAYAKVNGSYEALSGGSTSEGFEDFTGGVTEWYELRKAPSDLYQIILKALERGSLLGCSIDISSVLDMEAITFKKLVKGHAYSVTGAKQVNYRGQVVSLIRMRNPWGEVEWTGAWSDSSSEWNNVDPYERDQLRVKMEDGEFWMSFRDFMREFTRLEICNLTPDALKSRTIRKWNTTLYEGTWRRGSTAGGCRNYPATFWVNPQFKIRLDETDDPDDYGDRESGCSFVLALMQKHRRRERRFGRDMETIGFAVYEVPPELVGQPAVHLKRDFFLANASRARSEQFINLREVSTRFRLPPGEYVVVPSTFEPNKEGDFVLRFFSEKSAGTVELDDQIQANLPDEQVLSEEEIDENFKALFRQLAGEDMEISVKELRTILNRIISKHKDLRTKGFSLESCRSMVNLMDRDGNGKLGLVEFNILWNRIRNYLSIFRKFDLDKSGSMSAYEMRMAIESAGFKLNKKLYELIITRYSEPDLAVDFDNFVCCLVRLETMFRFFKTLDTDLDGVVTFDLFKWLQLTMFA
Calpain small subunit 1: MFLVNSFLKGGGGGGGGGGGLGGGLGNVLGGLISGAGGGGGGGGGGGGGGGGGGGGTAMRILGGVISAISEAAAQYNPEPPPPRTHYSNIEANESEEVRQFRRLFAQLAGDDMEVSATELMNILNKVVTRHPDLKTDGFGIDTCRSMVAVMDSDTTGKLGFEEFKYLWNNIKRWQAIYKQFDTDRSGTICSSELPGAFEAAGFHLNEHLYNMIIRRYSDESGNMDFDNFISCLVRLDAMFRAFKSLDKDGTGQIQVNIQEWLQLTMYS
R subunit
  R subunit digestion: selectively digested
R2C2 holoenzyme
  subunit proteolysis in holoenzyme: proteolysis of the R subunit, but not the C subunit
C subunit
  C subunit digestion: partial proteolysis
